Here are results for one compound from patent US20140322296A1, “PIPERAQUINE MICROCAPSULES AND COMPOSITIONS CONTAINING THEM” (Aptalis Pharma S.r.l., priority 2013, published 2014).

Each structure is given as a SMILES string.

This series is described as follows: Compatibility of piperaquine with the coacervation process (heating/cooling thermal cycles). It is filed as physicochemical. As to the method:
1. Methods for Characterization • Particle size distribution (PSD): an amount of microcapsules in the range of 25-50 g of microcapsules is poured into a 100 mL HDPE bottle, 0.2% (w/w) of Syloid 244 (colloidal silicon dioxide, WR Grace, Columbia, Md.) and manually blended for 2 minutes; the mixture of microcapsules and Syloid 244 is sieved then with a digital Octagon apparatus for 10 minutes at amplitude 7. • Bulk density and tapped density of powders is measured according to Method USP 34 <616>. • Dissolution profile: Ph Eur [2.9.3]; apparatus n^o 2; dissolution medium: gastric simulated fluid pH 1.2 0.5% of Tween 80 without pepsin; dissolution medium volume: 900 mL; • dissolution medium temperature: 37±0.5° C.; withdrawal at: 5, 15, 30, 60 and 120 min. • Water content: Karl Fischer titration: Ph. Eur. 2.5.12 Method; following sample titration conditions are applied: sample solvent: methanol:formamide 1:1; sample weight: 50 mg; the value of water content in a sample is expressed as % w/w. • Residual cyclohexane: gas-chromatography (head space analysis). • Photostability Testing: ICH conditions “Q1B: Photostability (Option 1)”. • X-Ray Powder Diffraction (XRPD) measurements are performed on a Philips X'Pert PRO diffractometer (Bragg-Brentano geometry). • IR identity. A compatibility study is carried out on piperaquine to assess the compatibility of the drug with the coacervation process. In particular, piperaquine undergoes heating/cooling cycles mimicking thermal excursions of the process. Then, the following tests are performed both before and after thermal cycles to ascertain the stability of piperaquine: water content analysis (Karl Fisher test); effect of mechanical stress; crystalline structure by XRPD.

Turning to `Clc1ccc2c(N3CCN(CCCN4CCN(c5ccnc6cc(Cl)ccc56)CC4)CC3)ccnc2c1` [PQP•4H2O, 4,4′-(1,3-propanediyldi-4,1-piperazinediyl)bis(7-chloroquinoline)phosphate hydrate (1:4:4)], where the note is “after thermal cycle”, the “Assay (%) (PQP•4H2O)” value was 99.9% and the “Water content (%)” value stood at 8.5%. Also, where the note is “before thermal cycle”, the “Assay (%) (PQP•4H2O)” value was 99.9% and the “Water content (%)” value was 8.9%. The “Effect of heating/cooling cycle on the drug” value (thermal excursions mimicking the coacervation process) was “not affected by heating/cooling cycle”.
